Laboratory results reported in patent US12369577B2, “Monoterpenoid/phenylpropanoid-containing compounds and methods of their making and use as baits” (KITTRICH CORPORATION, priority 2016, dated 2025).
“Also recorded” adds a separate entry of the source.

Columns and labels:
[1] = tested on: German cockroaches (Blattella germanica); experiment: German cockroach feeding assay (compound in crushed Cheerios); format: in vivo; conditions: for percentage mortality compared to the control at two weeks / percentage mortality compared to the control: 3.75% weight compound/weight food; for percentage mortality compared to the control at two weeks: α=0.05 (FIG. 2); for percentage mortality compared to the control: 1, 2, and 3 weeks (FIG. 1); for mortality at two weeks: 15% w/w food, two weeks (FIG. 3)
Experimental: Insects were kept in a constant 12:12-hour light: dark cycle and fed a diet of dry cat food (Purina® Cat Chow Complete®, rolled oats (HyVEE® Old Fashioned Oats), and Fluker's® Cricket Quencher.
Five adult German cockroaches (Blattella germanica) were introduced to mason jars with steel mesh at the top to prevent escape. 266.6 mg of crushed Cheerios™ (approximately two cheerios) was mixed with compound at varying concentrations by weight food. If the material was solid, a mortar and pestle was used to homogenize the crushed Cheerios and compound. If the material was a liquid, it was dissolved in acetone and aliquoted into the food slowly until the desired concentration of compound by weight food was achieved. If acetone was used as the carrier throughout the experiment, the food was carefully stirred repeatedly to ensure evaporation so that no more acetone was present in the food. This was done to prevent mortality due to the presence of solvent in the treated food. Controls consisted of food that was treated with approximately 1 mL of just acetone. […] Concentrations used to assess mortality were 3.75% and 15% weight compound by weight food. Total mortality was assessed at 2 weeks after introducing cockroaches into individual mason jars with food treated with different compounds.
Data is presented as average percentage mortality with the standard error of the mean (SEM). A minimum of three replicates were performed for each compound and a ANOVA with a post-hoc Student Newman-Kuels test was performed to compare individual treatments to the control (α=0.05).

[2] = tested on: Northern house mosquitoes (Culex pipiens); conditions: 0.1%
[3] = tested on: house flies (Musca domestica); conditions: in vivo
Experimental: House flies (Musca domestica) were obtained from an established colony maintained by the Pesticide Toxicology Laboratory, Department of Entomology at iowa State University, Ames IA Flies were maintained according to standard laboratory protocols. House flies were supplied with water via cotton wick and solid support of sugar and dry milk (mixed 1:1), ad libitum. Prior to testing, house flies were maintained at a temperature of 24±2° C., were held at 30%±10% relative humidity, and a 12:12 hr light:dark photoperiod. Flies were randomly chosen from one of three separate Bioquip BugDorm® cages on different days to prevent a potential bias in health.

[4] = tested on: house flies (Musca domestica); experiment: House fly feeding assay, solid food, choice assay; format: in vivo; conditions: 15% w/w food; treated and untreated food; 5-days post exposure (FIG. 6)
From the text: The choice assay included one untreated food source of 1:1 evaporated milk powder and sucrose and one treated food source (with toxic biorational compounds) comprised of the same materials. Moreover, toxic insecticidal bait compounds were incorporated into the food mixture at a concentration of 15% w/w food. This increased concentration of toxic insecticidal bait was chosen to account for the concomitant lower percentage mortality expected due to the presence of both a treated and untreated food source. Mortality was recorded at 5-days post exposure.
Data is presented as average percentage mortality with the standard error of the mean (SEM). This number was compared to the total number of flies introduced to each aquaria for each replicate, and a percentage mortality was calculated. A minimum of three replicates were performed for each compound.

[5] = tested on: house flies (Musca domestica); experiment: House fly feeding assay, solid food, non-choice; format: in vivo; conditions: 5% weight/weight food compound plus 0.5% Z-9-tricosene (Muscalure) (FIG. 5)
From the text: Approximately 20-30 adult house flies (Musca domestica) were introduced into aquaria (2.5 gallon) with a French square filled with de-ionized water. Cotton dental wicks were used to draw water up and present it to flies at the top of the French square. Different concentrations of compounds were introduced into 1:1 mixtures of evaporated milk powder and sucrose. 2 grams of food was provided to flies with compound incorporated at various weights by weight food. If the material was solid, a mortar and pestle was used to homogenize the crushed evaporated milk powder, sucrose, and compound. If the material was a liquid, it was dissolved in acetone and aliquotted into the food slowly until the desired concentration of compound by weight food was achieved. If acetone was used as the carrier throughout the experiment, the food was carefully stirred repeatedly to ensure evaporation so that no more acetone was present in the food. The concentration used to assess mortality was 5% weight compound by weight food. Total mortality was assessed at 5 days after introducing house flies into individual mason jars with food treated with different compounds. […]
Data is presented as average percentage mortality with the standard error of the mean (SEM). This number was compared to the total number of flies introduced to each aquaria for each replicate, and a percentage mortality was calculated. […]

For `CC(C)=CCCC(C)CC(=O)OCC(O)COC(=O)CC(C)CCC=C(C)C` (centres unmarked) [dicitronelloyl glycerol, dicitronelloylglycerol], the “percentage mortality compared to the control at two weeks” value [1] was “statistically significant percentage mortality compared to the control”.

`Cc1ccc(C(C)C)c(OCC(=O)O)c1` [thymyloxyacetic acid] was tested, and the “percentage mortality compared to boric acid (FIG. 8 legend)” value ([2]; 96, 120, and 144 hours) was “higher numerical percentage mortality than boric acid”, the “percentage mortality compared to the sucrose-only control” value ([2]; 96, 120, and 144 hours (FIG. 8)) was “statistically significant percentage mortality compared to the sucrose-only control” and the “percentage mortality compared to boric acid” value ([2]; 120 and 144 hours) was “much higher numerical percentage mortality compared to boric acid”. The maximum percentage mortality ([2]; 144 hours after introduction) was 95±3.53%, the “performance compared with boric acid” value ([2]; all time points, lack of statistical significance) was “performed as well as boric acid” and the “mortality compared with boric acid” value [3] was “performed similarly”. The “percentage mortality at 48 hours” value [3] was 26.7%, the “percentage mortality at 72 hours” value [3] was 80% and the “percentage mortality at 96 hours” value [3] was 93.3%. The “percentage mortality at 120 hours” value [3] was 100%.

`CCCCCOC(=O)COc1cc(C)ccc1C(C)C` [amyl ester of thymyloxyacetic acid, amyl thymyloxyacetate] was tested, and the “toxicity and palatability in choice assay” value (from here on “toxicity and palatability”) [4] was “significant levels of toxicity”.

For `CC(C)=CCCC(C)CC(=O)OCCOC(=O)CC(C)CCC=C(C)C` (centres unmarked) [ethylene dicitronellate], the “percentage mortality compared to the control” value [1] was “considerably higher percentage mortality at all time points compared to the control group”, the “percentage mortality compared to the control” value ([1]; listed as Ethylene dicitronellate) was “considerably higher percentage mortality compared to the control” and the “percentage mortality compared to the control at two weeks” value [1] was “statistically significant percentage mortality compared to the control”. The “mortality at two weeks” value [1] was 100%.

With `Cc1ccc(C(C)C)c(O)c1` [thymol, reference compound] the “percentage mortality at 120 hours” value [3] was 25±10.7%.

`CC(C)=CCCC(C)CCOC(=O)COc1cc(C)ccc1C(C)C` (centres unmarked) was tested, and the “toxicity and palatability” value [4] was “significant levels of toxicity”.

With `OB(O)O` [boric acid, reference compound] the “percentage mortality at 120 hours” value [3] was 100%.

For `CC(C)=CCCC(C)CC(=O)OC1C(OC(=O)CC(C)CCC=C(C)C)C(OC(=O)CC(C)CCC=C(C)C)C(OC(=O)CC(C)CCC=C(C)C)C(OC(=O)CC(C)CCC=C(C)C)C1OC(=O)CC(C)CCC=C(C)C` (centres unmarked) [hexacitronellyl inositol, hexacitronelloylinositol], the “mortality at two weeks” value [1] was 100%.

With `O=C(CCCCC(=O)OC/C=C/c1ccccc1)OC/C=C/c1ccccc1` [dicinnamyl adipate] the “percentage mortality with added Z-9-tricosene” value [5] was “higher percentage mortality; also recorded: increased toxicity”.

In the case of `CC(C)=CCC/C(C)=C/COC(=O)COc1cc(C)ccc1C(C)C` [geranyl thymyloxyacetate], the “toxicity and palatability” value [4] is reported as “significant levels of toxicity”.

For `Cc1ccc(C(C)C)c(OCC(=O)OC(C)C)c1` [isopropyl ester of thymyloxyacetic acid], the “toxicity and palatability” value [4] was “significant levels of toxicity”.
